# ChEMBL document CHEMBL1136816, “Synthesis and evaluation of ether and halogenated derivatives of mannopeptimycin glycopeptide antibiotics” (2003)
# Tests used:
# Type in all cases: functional
# Streptococcus sp. [1] = assay: In vitro minimum inhibitory concentration against Streptococcus species; 0.5-2
# Staphylococcus aureus [2] = assay: In vitro minimum inhibitory concentration against Staphylococcus aureus; 1-8
# Enterococcus sp. [3] = assay: In vitro minimum inhibitory concentration against Enterococcus species; 4-32
# Streptococcus sp. [4] = assay: In vitro minimum inhibitory concentration against Streptococcus species; 1-16
# Enterococcus sp. [5] = assay: In vitro minimum inhibitory concentration against Enterococcus species; 16-32
# Staphylococcus aureus [6] = assay: In vitro minimum inhibitory concentration against Staphylococcus aureus; 16-32
# Staphylococcus aureus [7] = assay: In vitro minimum inhibitory concentration against Staphylococcus aureus
# Streptococcus sp. [8] = assay: In vitro minimum inhibitory concentration against Streptococcus species; </=0.12-0.5
# Staphylococcus aureus [9] = assay: In vitro minimum inhibitory concentration against Staphylococcus aureus; 1-4
# Enterococcus sp. [10] = assay: In vitro minimum inhibitory concentration against Enterococcus species; 2-16
# Enterococcus sp. [11] = assay: In vitro minimum inhibitory concentration against Enterococcus species; 2-4
# Streptococcus sp. [12] = assay: In vitro minimum inhibitory concentration against Streptococcus species; </=0.06-0.12
# Staphylococcus aureus [13] = assay: In vitro minimum inhibitory concentration against Staphylococcus aureus; 2-4
# Staphylococcus aureus [14] = assay: In vitro minimum inhibitory concentration against Staphylococcus aureus; 2-8
# Streptococcus sp. [15] = assay: In vitro minimum inhibitory concentration against Streptococcus species
# Staphylococcus aureus [16] = assay: In vitro minimum inhibitory concentration against Staphylococcus aureus; 0.5-2
smiles,measurement,setting,value
CCOc1cc(COCC2O[C@H](O[C@H]3[C@H](O)[C@H](O)[C@@H](Oc4ccc(C[C@H]5NC(=O)[C@H]([C@@H](C)c6ccccc6)NC(=O)CNC(=O)[C@H](CO)NC(=O)[C@@H]([C@@H](O)[C@@H]6CN=C(N)N6[C@H]6O[C@H](CO)[C@@H](O)[C@H](O)[C@@H]6O)NC(=O)[C@H]([C@@H](O)[C@@H]6CN=C(N)N6)NC5=O)cc4)O[C@@H]3CO)[C@@H](O)[C@@H](O)[C@@H]2O)ccc1OC (some centres undefined),MIC,Streptococcus sp. [1],0.5 µg/mL
same,MIC,Staphylococcus aureus [2],1 µg/mL
same,MIC,Enterococcus sp. [3],4 µg/mL
C[C@@H](c1ccccc1)[C@@H]1NC(=O)CNC(=O)[C@H](CO)NC(=O)[C@@H]([C@@H](O)[C@@H]2CN=C(N)N2[C@H]2O[C@H](CO)[C@@H](O)[C@H](O)[C@@H]2O)NC(=O)[C@H]([C@@H](O)[C@@H]2CN=C(N)N2)NC(=O)[C@@H](Cc2ccc(O[C@H]3O[C@H](CO)[C@@H](O[C@H]4O[C@H](CO)[C@@H](OC/C=C/c5ccc(N(C)C)cc5)[C@H](O)[C@@H]4O)[C@H](O)[C@@H]3O)cc2)NC1=O,MIC,Streptococcus sp. [4],1 µg/mL
same,MIC,Enterococcus sp. [5],16 µg/mL
same,MIC,Staphylococcus aureus [6],16 µg/mL
COc1ccc(COC[C@H]2O[C@H](O[C@H]3[C@H](O)[C@H](O)[C@@H](Oc4ccc(C[C@H]5NC(=O)[C@H]([C@@H](C)c6ccccc6)NC(=O)CNC(=O)[C@H](CO)NC(=O)[C@@H]([C@@H](O)[C@@H]6CN=C(N)N6[C@H]6O[C@H](CO)[C@@H](O)[C@H](O)[C@@H]6O)NC(=O)[C@H]([C@@H](O)[C@@H]6CN=C(N)N6)NC5=O)cc4)O[C@@H]3CO)[C@@H](O)[C@@H](O)[C@@H]2O)cc1,MIC,Streptococcus sp. [1],0.5 µg/mL
same,MIC,Enterococcus sp. [3],4 µg/mL
same,MIC,Staphylococcus aureus [7],4 µg/mL
COc1ccc(COC[C@H]2O[C@H](O[C@H]3[C@H](O)[C@H](O)[C@@H](Oc4ccc(C[C@H]5NC(=O)[C@H]([C@@H](C)c6ccccc6)NC(=O)CNC(=O)[C@H](CO)NC(=O)[C@@H]([C@@H](O)[C@@H]6CN=C(N)N6[C@H]6O[C@H](CO)[C@@H](O)[C@H](O)[C@@H]6O)NC(=O)[C@H]([C@@H](O)[C@@H]6CN=C(N)N6)NC5=O)cc4)O[C@@H]3CO)[C@@H](O)[C@@H](O)[C@@H]2O)c2ccccc12,MIC,Streptococcus sp. [8],≤ 0.12 µg/mL
same,MIC,Staphylococcus aureus [9],1 µg/mL
same,MIC,Enterococcus sp. [10],2 µg/mL
C[C@@H](c1ccccc1)[C@@H]1NC(=O)CNC(=O)[C@H](CO)NC(=O)[C@@H]([C@@H](O)[C@@H]2CN=C(N)N2[C@H]2O[C@H](CO)[C@@H](O)[C@H](O)[C@@H]2O)NC(=O)[C@H]([C@@H](O)[C@@H]2CN=C(N)N2)NC(=O)[C@@H](Cc2ccc(O[C@H]3O[C@H](CO)[C@@H](O[C@H]4O[C@H](COCc5ccc(Oc6ccccc6)cc5)[C@@H](O)[C@H](O)[C@@H]4O)[C@H](O)[C@@H]3O)cc2)NC1=O,MIC,Enterococcus sp. [11],2 µg/mL
same,MIC,Streptococcus sp. [12],≤ 0.06 µg/mL
same,MIC,Staphylococcus aureus [13],2 µg/mL
COc1ccc(COC[C@H]2O[C@H](O[C@H]3[C@H](O)[C@H](O)[C@@H](Oc4ccc(C[C@H]5NC(=O)[C@H]([C@@H](C)c6ccccc6)NC(=O)CNC(=O)[C@H](CO)NC(=O)[C@@H]([C@@H](O)[C@@H]6CN=C(N)N6[C@H]6O[C@H](CO)[C@@H](O)[C@H](O)[C@@H]6O)NC(=O)[C@H]([C@@H](O)[C@@H]6CN=C(N)N6)NC5=O)cc4)O[C@@H]3CO)[C@@H](O)[C@@H](O)[C@@H]2O)cc1F,MIC,Streptococcus sp. [1],0.5 µg/mL
same,MIC,Staphylococcus aureus [14],2 µg/mL
same,MIC,Enterococcus sp. [3],4 µg/mL
C[C@@H](c1ccccc1)[C@@H]1NC(=O)CNC(=O)[C@H](CO)NC(=O)[C@@H]([C@@H](O)[C@@H]2CN=C(N)N2[C@H]2O[C@H](CO)[C@@H](O)[C@H](O)[C@@H]2O)NC(=O)[C@H]([C@@H](O)[C@@H]2CN=C(N)N2)NC(=O)[C@@H](Cc2ccc(O[C@H]3O[C@H](CO)[C@@H](O[C@H]4O[C@H](CO)[C@@H](OCc5ccc(OCc6ccccc6)cc5)[C@H](O)[C@@H]4O)[C@H](O)[C@@H]3O)cc2)NC1=O,MIC,Streptococcus sp. [15],≤ 0.06 µg/mL
same,MIC,Staphylococcus aureus [16],0.5 µg/mL
same,MIC,Enterococcus sp. [11],2 µg/mL
C[C@@H](c1ccccc1)[C@@H]1NC(=O)CNC(=O)[C@H](CO)NC(=O)[C@@H]([C@@H](O)[C@@H]2CN=C(N)N2[C@H]2O[C@H](CO)[C@@H](O)[C@H](O)[C@@H]2O)NC(=O)[C@H]([C@@H](O)[C@@H]2CN=C(N)N2)NC(=O)[C@@H](Cc2ccc(O[C@H]3O[C@H](CO)[C@@H](O[C@H]4O[C@H](COCC=C(c5ccccc5)c5ccccc5)[C@@H](O)[C@H](O)[C@@H]4O)[C@H](O)[C@@H]3O)cc2)NC1=O,MIC,Streptococcus sp. [15],≤ 0.06 µg/mL
same,MIC,Enterococcus sp. [11],2 µg/mL
same,MIC,Staphylococcus aureus [7],2 µg/mL
